Assay results from patent publication US10793567B2, “Bicyclic inhibitors of histone deacetylase” (Rodin Therapeutics, Inc., priority 2017, dated 2020).
Where “and” joins values, the source holds several entries; their conditions need not be identical. Equal values may be shown once. Read-outs that look alike come from different tables or passages of the source.

How the values were obtained:
[1] = system: human myeloid progenitors (CFU-GM); experiment: Myeloid CFU assay (colony forming cell assay, bone marrow); assay type: cell-based; settings: 14 days in culture
Protocol: Compounds were tested to evaluate the potential effects on human erythroid and myeloid progenitors using colony forming cell assays. Clonogenic progenitors of human erythroid (CFU-E, BFU-E), granulocyte-monocyte (CFU-GM) and multipotential (CFU-GEMM) lineages were assessed in a semi-solid methylcellulose-based media formulation containing rhlL-3 (10 ng/mL), rhGM-SCF (10 ng/mL), rhSCF (50 ng/mL) and Epo (3 U/mL).
Normal human bone marrow light density cells derived from normal bone marrow (NorCal Biologics, California), were stored in the gaseous phase of liquid nitrogen (−152° C.) until required for the assay. On the day of the experiment, the cells were thawed rapidly, the contents of each vial was diluted in 10 mL of Iscove's modified Dulbecco's medium containing 10% fetal bovine serum (IMDM+10% FBS) and washed by centrifugation (approximately 1200 r.p.m. for 10 minutes, room temperature). The supernatant was discarded and the cell pellets resuspended in a known volume of IMDM+10% FBS. A cell count (3% glacial acetic acid) and viability assessment (trypan blue exclusion test) was performed for the bone marrow sample.
On the day of the experiment, the compounds were dissolved in DMSO to a stock concentration of 10 mM. Serial dilutions were prepared from the stock concentration to achieve concentrations of 2 and 0.4 mM. When added to the methylcellulose-based media at 1:1000 (v/v), the final test concentrations of 10, 2 and 0.4 μM were achieved. Additionally, 5-FU was evaluated at 1.0, 0.1 and 0.01 μg/mL.
Clonogenic progenitors of the human erythroid (CFU-E and BFU-E) and myeloid (CFU-GM) lineages were set up in the methylcellulose-based media formulations described above. All compounds were added to the medium to give the final desired concentrations (10, 2 and 0.4 μM). 5-Fluorouracil (Sigma Aldrich) was used as a positive control for progenitor proliferation (inhibition of colony growth) and was introduced to the human bone marrow cultures at 1.0, 0.1, and 0.01 μg/mL. Solvent control cultures (containing no compound but 0.1% DMSO) as well as standard controls (containing no compound and no DMSO) were also initiated.
Human myeloid and erythroid progenitor assays were initiated at 2.0×10^4 cells per culture. Following 14 days in culture, myeloid and erythroid colonies were assessed microscopically and scored by trained personnel. The colonies were divided into the following categories based on size and morphology: CFU-E, BFU-E, CFU-GM and CFU-GEMM.
The mean±one standard deviation of three replicate cultures was calculated for progenitors of each category (CFU-E, BFU-E, etc.). Two-tailed t-tests were performed to assess if there was a difference in the number of colonies generated between solvent control and treated cultures. Due to the potential subjectivity of colony enumeration, a p value of less than 0.01 is deemed significant. To calculate the concentration of 50% inhibition of colony growth (IC50) for each compound, a dose response curve was generated plotting the log of the compound concentration versus the percentage of control colony growth using XLfit software (IDBS). The concentration of 50% inhibition of colony growth (IC50) was calculated based on the sigmoid curve fit using Dose-Response, One-Site Model formula: y=A+[(B−A)/(1+((C/x)^D))], where A=the initial value (baseline response), B=maximum response, C=center (drug concentration that provokes a response halfway between A and B) and D=slope of the curve at midpoint. Further, plots and additional dose response curves were generated using GraphPad Prism 7.0.
Erythroid (CFU-E and BFU-E), myeloid (CFU-GM) and multi-potential (CFU-GEMM) colony enumeration was performed by trained personnel. The distribution of colony types as well as general colony and cellular morphology was analyzed. For statistical analysis colony numbers in compound treated cultures were compared to the solvent control cultures. […]

HDAC2 = HDAC2 (Homo sapiens (Human), UniProt Q92769); experiment: HDAC2 enzymatic inhibition assay in SY5Y cell lysate (HDAC-Glo 2); assay type: cell-based; settings: SH-SY5Y cells, five hours incubation
HDAC2, sequence (Q92769 whole entry): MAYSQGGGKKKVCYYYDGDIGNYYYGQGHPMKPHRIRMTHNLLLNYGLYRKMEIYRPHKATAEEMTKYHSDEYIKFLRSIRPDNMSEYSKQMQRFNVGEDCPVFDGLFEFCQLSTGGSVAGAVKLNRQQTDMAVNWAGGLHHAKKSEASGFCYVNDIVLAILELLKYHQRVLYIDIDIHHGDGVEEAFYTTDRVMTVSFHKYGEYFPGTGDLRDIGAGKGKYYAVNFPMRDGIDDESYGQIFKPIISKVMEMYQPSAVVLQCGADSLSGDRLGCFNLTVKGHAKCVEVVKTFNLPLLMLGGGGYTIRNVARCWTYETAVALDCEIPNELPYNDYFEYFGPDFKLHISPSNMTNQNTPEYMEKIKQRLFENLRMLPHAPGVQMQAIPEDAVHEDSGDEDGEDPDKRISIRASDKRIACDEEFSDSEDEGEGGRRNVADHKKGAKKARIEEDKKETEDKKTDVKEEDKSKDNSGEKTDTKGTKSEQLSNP
Protocol: SH-SY5Y cells (Sigma) were cultured in Eagle's Modified Essential Medium supplemented with 10% fetal bovine serum and pen/strep. Twenty-four hours prior to compound dosing 20 uL of cells were plated in white 384 well plates at a density of 1,500 cells/well. Compounds were serially diluted in neat DMSO and then diluted 1:100 v/v into media without FBS and mixed. Media was removed from the plated cells and the diluted compounds in serum free media (1% v/v final DMSO) were added and incubated at 37.0 for five hours. Ten uL of HDAC-Glo 2 reagent with 0.1% Triton X-100 was then added, the plate was mixed and allowed to develop at room temperature for 100 minutes. Plates were then read with a Spectramax LMax luminometer employing a 0.4 s integration time. Dose response curves were constructed with normalized data where CI-994 at 100 uM was defined as 100% inhibition and DMSO alone as 0% inhibition.

[2] = Brain and plasma exposure following IV and PO administration to mice; assay type: in vivo; settings: for Projected free brain @ 10 mpk / Brain Cmax @ 10 mpk: 10 mg/kg PO; for half-life / clearance: mouse, plasma; for clearance: read-out: IV PK Cl (converted); for brain Cmax exposure, fold higher than comparator 1 / projected free brain concentration, fold higher than comparator 1: comparator 1 data scaled for comparison
Protocol: Compounds were dosed in mice at either 10 mg/kg or 30 mg/kg PO, and were dosed at 1 mg/kg IV. Three animals for collection at each time point for plasma via bleeding at 0.25, 0.5, 1, 4, 12 and 24 h. Terminal bleeding for plasma and sampling for brain at 0.25, 0.5, 1, 4, 12 and 24 h (also three animals per brain exposure time point group). Total of six time points for plasma and six time points for brain.
Plasma: The animal was restrained manually at the designated time points, approximately 150 μL blood/time point was collected into K2EDTA tube via retro orbital puncture or cardiac puncture under anesthesia with Isoflurane. The blood sample was centrifuged (2000 g, 4° C., 5 min) to generate plasma within 30 min after bleeding.
Brain: At the designated time points, a mid-line incision was made in the animals scalp and the skin was retracted. Using small bone cutters and rongeurs, removed the skull overlying the brain. Removed the brain using a spatula and rinse with cold saline. Placed the brain in screw-top tubes, and then stored the tubes under −70° C. until analysis.

[3] = iv, 1 mg/kg, mice, 1 mg/kg IV, read-out: IV PK T1/2 (converted)
[4] = po, 10 mg/kg, mice, PO, read-out: PO T1/2 (converted)

| SMILES | Myeloid % control @ 10 uM dose [1] [%] | IC50 (HDAC2) [nM] | Projected free brain @ 10 mpk ([2]; mice) | Brain Cmax @ 10 mpk ([2]; mice) | half-life [2, 3] [h] | half-life [2, 4] [h] | clearance ([2]; mice, 1 mg/kg IV) [mL/min/kg] | PO T1/2 ([2]; mice, PO) [h] | brain Cmax exposure, fold higher than comparator 1 [2] [fold] | projected free brain concentration, fold higher than comparator 1 [2] [fold] |
| --- | --- | --- | --- | --- | --- | --- | --- | --- | --- | --- |
| Cc1ncc2c(n1)CN(C(=O)Nc1nc(-c3ccc(F)s3)ccc1N)C2 [Compound 2] | 87 | 1000 to 1500 | 0.438 µM | 760 ng/g | 0.643 | 1.25 | 67.7 |  |  |  |
| Cc1cc2c(cn1)CN(C(=O)Nc1nc(-c3cccnc3)ccc1N)C2 [Compound 12] | 104 | 100 to 1000 | 0.386 µM | 237 ng/g | 0.513 | 3.67 | 29.5 |  |  |  |
| Cc1ncc2c(n1)CN(C(=O)Nc1nc(-c3ccc(F)cc3)ccc1N)C2 [Compound 14] | 112 | 100 to 1000 | 0.403 µM | 633 ng/g | 2.09 | 3.22 | 14.3 |  | 4 | 4 |
| CCc1ncc2c(n1)CN(C(=O)Nc1nc(-c3ccc(F)cc3)ccc1N)C2 [Compound 17] | 79.1 | 1000 to 1500 | 0.568 µM | 1241 ng/g | 2.07 | 2.54 | 24.8 |  | ~7 | 5 |

Next, values leading:

| Myeloid % control @ 10 uM dose [1] [%] | IC50 (HDAC2) [nM] | Projected free brain @ 10 mpk ([2]; mice) | Brain Cmax @ 10 mpk ([2]; mice) | half-life [2, 3] [h] | half-life [2, 4] [h] | clearance ([2]; mice, 1 mg/kg IV) [mL/min/kg] | PO T1/2 ([2]; mice, PO) [h] | brain Cmax exposure, fold higher than comparator 1 [2] [fold] | projected free brain concentration, fold higher than comparator 1 [2] [fold] | SMILES |
| --- | --- | --- | --- | --- | --- | --- | --- | --- | --- | --- |
| 54 | 100 to 1000 | 0.324 µM | 636 ng/g | 3.11 | 2.05 | 7.02 |  |  |  | Nc1ccc(-c2ccc(F)cc2)nc1NC(=O)N1Cc2cn(C3COC3)nc2C1 [Compound 1] |
| 89.4 | 100 to 1000 | 0.387 µM | 526 ng/g | 0.737 | 1.48 | 25 |  |  |  | CCc1ncc2c(n1)CN(C(=O)Nc1nc(-c3cccs3)ccc1N)C2 [Compound 3] |
|  | 100 to 1000 | 0.302 µM | 277 ng/g | 2.81 | 2.33 | 5.9 |  |  |  | Cc1ncc(-c2ccc(N)c(NC(=O)N3Cc4cn(CC(F)F)nc4C3)n2)s1 [Compound 5] |
| 102 | 100 to 1000 | 0.222 µM | 279 ng/g | 0.628 | 1.27 | 35.2 |  |  |  | CCc1cc2c(cn1)CN(C(=O)Nc1nc(-c3cccnc3)ccc1N)C2 [Compound 8] |
| 62.8 | 100 to 1000 | 0.881 µM and 0.795 µM | 1533 ng/g and 1383 ng/g | 0.644 | 1.39 | 27.8 | 1.01 |  |  | COCCn1cc2c(n1)CN(C(=O)Nc1nc(-c3ccc(F)cc3F)ccc1N)C2 [Compound 9] |
